{"source": "patent US20030083381A1", "about": "“Hair growth or hair formation controlling agents” (priority 2000, published 2003)", "key": {"[1]": {"target": "T1, human PGE2 receptor subtype EP4 (Homo sapiens, UniProt P35408)", "T1 construct": "expressed in transfected cells; host or cells: COS-7 cells, transient expression; membrane specimens", "T1 sequence (P35408 whole entry)": "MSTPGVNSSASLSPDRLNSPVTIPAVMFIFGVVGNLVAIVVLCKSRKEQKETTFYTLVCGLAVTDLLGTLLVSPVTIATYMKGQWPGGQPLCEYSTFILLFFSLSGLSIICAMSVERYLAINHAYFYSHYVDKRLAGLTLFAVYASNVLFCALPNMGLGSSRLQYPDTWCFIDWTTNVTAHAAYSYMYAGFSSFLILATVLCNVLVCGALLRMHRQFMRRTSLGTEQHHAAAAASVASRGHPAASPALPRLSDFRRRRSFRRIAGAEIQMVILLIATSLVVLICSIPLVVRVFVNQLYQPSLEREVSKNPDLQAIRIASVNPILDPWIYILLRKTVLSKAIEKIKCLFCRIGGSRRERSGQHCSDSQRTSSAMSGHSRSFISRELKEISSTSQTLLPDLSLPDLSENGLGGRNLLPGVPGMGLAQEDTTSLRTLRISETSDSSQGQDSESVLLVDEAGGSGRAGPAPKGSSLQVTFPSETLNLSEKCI", "assay": "Receptor binding experiment using PGE2 receptor subtype-expressing cells (3H-PGE2 displacement, membrane fractions)", "conditions": "human PGE2 receptor subtypes EP2, EP3, EP4", "protocol": "Receptor Binding Experiment Using PGE2 Receptor Subtype-expressing Cells\nThe compound of the Formula (I) described above was tested for its selective binding activity to EP4 receptor by using PGE2 receptor subtype-expressing cells.\nAccording to the reported method (Breyer,R. M. et al., J. Biol. Chem. 269,6163-6169(1994)), cloned human PGE2 receptor subtypes (EP3 and EP4) were transiently expressed by COS-7 cells. EP2 was stably expressed by CHO cells. These cells were prepared into membrane specimens. Each of the prepared membrane fractions (10 μg/tube) was incubated with a reaction solution containing ^3H—PGE2 at 30° C. for 1 hour. The reaction was terminated by iced buffer (10 mM MES(pH 6.0), 10 mM MgCl2, 1 mM EDTA), and the resultant was subjected to filtration by means of suction under reduced pressure to trap the bound ^3H-PGE2 on a glass filter (GF/C), followed by measurement of the radioactivity with a liquid scintillation counter.\nThe Kd value was determined from Scatchard plot according to the conventional method. Non-specific binding was determined in terms of the amount of bound radioactivity in the presence of an excess amount (5 μM) of non-labeled PGE2. […]\nThe dissociation constant Ki (nM) of Compound 1 was calculated according to the following equation: […]"}, "EP4 Receptor": {"target": "EP4 Receptor (Oryctolagus cuniculus, UniProt Q28691)", "sequence (Q28691 whole entry)": "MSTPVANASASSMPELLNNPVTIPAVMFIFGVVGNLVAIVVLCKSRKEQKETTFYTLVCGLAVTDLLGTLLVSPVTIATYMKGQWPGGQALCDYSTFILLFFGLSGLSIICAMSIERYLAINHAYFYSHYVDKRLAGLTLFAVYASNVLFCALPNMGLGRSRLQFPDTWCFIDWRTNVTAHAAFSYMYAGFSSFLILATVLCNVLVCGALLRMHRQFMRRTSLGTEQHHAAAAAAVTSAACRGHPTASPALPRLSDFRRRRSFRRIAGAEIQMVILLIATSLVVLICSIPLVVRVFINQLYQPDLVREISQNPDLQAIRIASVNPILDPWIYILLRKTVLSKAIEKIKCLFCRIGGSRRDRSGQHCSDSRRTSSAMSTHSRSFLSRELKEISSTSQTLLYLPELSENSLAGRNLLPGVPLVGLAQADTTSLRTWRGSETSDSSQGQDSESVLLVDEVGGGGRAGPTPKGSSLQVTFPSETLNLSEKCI", "assay": "Magnus experiment using rabbit saphenous vein (relaxation of 40 mM KCl contraction)", "assay_type": "cell-based", "protocol": "Magnus Experiment Using Rabbit Saphenous Vein\nInvestigation of agonistic activity to EP4 was carried out by an improved method of the method of Lydford et al. (S. J. Lydford et al., Br. J. Pharmacol. 117, 13-20 (1996)) using rabbit saphenous veins. That is, each rabbit was deeply anesthetized by administering pentobarbital (50 mg/kg) to auricular vein, and then sacrificed by bleeding by cutting carotid artery. Saphenous vein was carefully but quickly removed and transferred into Krebs solution (NaCl 118.1 mM, KCl 5.31 mM, MgSO4 1.01 mM, CaCl2 3.52 mM, NaH2PO4 1.09 mM, NaHCO3 25.0 mM, glucose 9.99 mM, pH 7.4) which was preliminarily saturated with 95% O2+5% CO2 mixed gas. The connective tissue and the fatty tissue of each saphenous vein were isolated using a scissors for ophthalmology to prepare a ring preparation with a width of about 4 mm. This ring preparation was mounted on a hook for blood vessels, and then suspended in a Magnus tube filled with Krebs solution aerated with 95% O2+5% CO2 mixed gas and kept at 37° C. The isometric tension of each blood vessel was recorded on a recorder through an isometric transducer. To each blood vessel, a base tension of 1.0 g was applied and the blood vessel tissue was stabilized for about 30 minutes until the baseline became stabilized. After the baseline became stable, the blood vessel was contracted with 40 mM KCl, and the shrinkage and washing were repeated until the contraction became stable. After the contraction with KCl became stable, a thromboxane antagonist S-145 (1000 nM) was applied previously and then cumulative application experiments of Compounds 1 to 7 were carried out. More specifically, the reactivity to PGE2 which was a positive control drug was measured, and after washing, the action of each compound was studied. The effectiveness of each drug was expressed in terms of the concentration (EC50) at which the rate of relaxation of the test drug to the contraction by 40 mM KCl was 50%. EC50 value was calculated by plotting logarithm of the concentration of each drug along the abscissa and plotting the rate of relaxation with respect to the contraction by 40 mM KCl along the ordinate, and by determining the concentration at which the height of contraction was 50% based on the linear area of the concentration-reaction curve in each experiment. [drawing 39]"}, "epilated rabbit models [2]": {"system": "epilated rabbit models", "assay": "Hair-growth/generation test in epilated rabbits, subcutaneous, once a day from 2nd to 20th day", "assay_type": "in vivo", "conditions": "for Length of New Hair (mm) / Rate of Hair-generated Area (%): mean ± standard error", "protocol": "(§1) Hair-Growing or Hair-Generating Action\n(§2) The test was carried out as follows. The hair on the back of each rabbit was removed with an electric clipper and evacream was applied for a short time to the back so as to epilate the back. After wiping the epilated region with water, test compound was subcutaneously administered to the back at a dose of 0.25 ml/kg (dissolved in 0.9% sodium chloride solution) once a day from the second day to 20th day after epilation. The state of generation of hair was observed and the length of the hair was measured."}, "epilated rabbit models [3]": {"system": "epilated rabbit models", "assay": "Hair-growth/generation test in young epilated rabbits (8 weeks old), subcutaneous, once a day from 2nd to 7th day", "assay_type": "in vivo, New Zealand White rabbits", "conditions": "young rabbits 8 weeks old", "protocol": "as §1\nas §2, with “removed” for “removed with an electric clipper”, “ml/kg” for “ml/kg (dissolved in 0.9% sodium chloride solution)”, “7th” for “20th”, “The” for “The state of generation of hair was observed and the”"}, "[4]": {"conditions": "relaxation of contraction by 40 mM KCl, thromboxane antagonist S-145 (1000 nM) present, read-out: EC50 (nM), agonistic activity to EP4 receptor in rabbit saphenous vein relaxation reaction"}}, "note": "Where two headings read alike, the source gives them in different places."}
{"compound": "O=C(O)CCc1cccc2c1O[C@H]1C[C@@H](O)[C@H](/C=C/[C@@H](O)CC3CCCCC3)[C@@H]21", "note": "[Compound 1]", "values": [{"measurement": "selectivity to EP4 receptor subtype (binding abilities to other receptor subtypes are low)", "setting": "[1]", "result": "high selectivity"}, {"measurement": "EC50", "setting": "EP4 Receptor", "result": 6, "unit": "nM"}, {"measurement": "Rate of Rabbits with 50% or More Hair-Generated Area", "setting": "epilated rabbit models [2]; 0.03 mg/kg s.c., 20th day", "result": "1/4"}, {"measurement": "Length of New Hair (mm)", "setting": "epilated rabbit models [2]; 0.03 mg/kg s.c., 20th day", "result": "6.0 ± 0.6", "unit": "mm"}, {"measurement": "Rate of Hair-generated Area (%)", "setting": "epilated rabbit models [2]; 0.03 mg/kg s.c., 20th day", "result": "15.8 ± 13.2", "unit": "%"}, {"measurement": "Rate of Hair-generated Area (%)", "setting": "epilated rabbit models [2]; 0.1 mg/kg s.c., 20th day", "result": "48.8 ± 13.6", "unit": "%"}, {"measurement": "Length of New Hair (mm)", "setting": "epilated rabbit models [2]; 0.1 mg/kg s.c., 20th day, p < 0.05 vs. control", "result": "7.3 ± 0.5", "unit": "mm"}, {"measurement": "length of the new hair (in words)", "setting": "epilated rabbit models [2]; epilated rabbits, s.c. once a day", "result": "increased"}]}
{"compound": "OC(C=CC1C(O)CC2Oc3c(CCc4nnn[nH]4)cccc3C21)CC1CCCCC1", "note": "(stereo not shown) [Compound 2]", "values": [{"measurement": "Length of New Hair (mm)", "setting": "epilated rabbit models [3]; 0.03 mg/kg s.c., 7th day, mean ± standard error, p < 0.05 vs. control", "result": "11.7 ± 0.5", "unit": "mm"}, {"measurement": "length of the new hair (in words)", "setting": "epilated rabbit models [3]; s.c. once a day", "result": "increased"}, {"measurement": "EC50", "setting": "EP4 Receptor; [4]", "result": 3, "unit": "nM"}]}
{"compound": "O=C(O)C=Cc1cccc2c1OC1CC(O)C(C=CC(O)CC3CCCCC3)C21", "note": "(stereo not shown) [Compound 3]", "values": [{"measurement": "EC50", "setting": "EP4 Receptor", "result": 6, "unit": "nM"}]}
{"compound": "CC(C)(Cc1ccccc1)C(O)C=CC1C(O)CC2Oc3c(CCC(=O)O)cccc3C21", "note": "(stereo not shown) [Compound 4]", "values": [{"measurement": "EC50", "setting": "EP4 Receptor", "result": 7, "unit": "nM"}]}
{"compound": "CC(C)(C(O)C=CC1C(O)CC2Oc3c(OCC(=O)O)cccc3C21)C1CCCCC1", "note": "(stereo not shown) [Compound 5]", "values": [{"measurement": "EC50", "setting": "EP4 Receptor; [4]", "result": 26, "unit": "nM"}]}
{"compound": "O=C(O)CSc1cccc2c1OC1CC(O)C(C=CC(O)CC3CCCCC3)C21", "note": "(stereo not shown) [Compound 6]", "values": [{"measurement": "EC50", "setting": "EP4 Receptor; [4]", "result": 33, "unit": "nM"}]}
{"compound": "O=C(O)CCc1cccc2c1OC1CC(O)C(C=CC(O)C(F)(F)C3CCCCC3)C21", "note": "(stereo not shown) [Compound 7]", "values": [{"measurement": "EC50", "setting": "EP4 Receptor", "result": 2, "unit": "nM"}]}
